Experimental data from patent publication US9085606B2, “Beta amino acid derivatives as integrin antagonists” (Saint Louis University, priority 2012, dated 2015).
pIC50: −log10 of the molar value.

Tests used:
[1] = molecular target: T1, Recombinant human integrin α5β1 (Homo sapiens, UniProt P05556+P08648); assay: Solid Phase Receptor Assay for α5β1 Function; conditions: binding to fibronectin-coated plate; read-out: α5β1 SPRA IC50
T1 construct: purchased R&D Systems 3230-A5
Protocol: Solid Phase Receptor Assay for α5β1 Function.
Wells were washed 3 times with 150 μL TBS+ and 150 μl of blocking buffer (TBS+ with 1% bovine serum albumin, Sigma A7906) were added. The plate was incubated for 1 hr at 37° C. and then washed 3× with TBS+ buffer. […] Compounds were diluted 1:100 into the integrin solution and then 50 μL added to empty wells of the washed fibronectin-coated plate according to a standard template with each sample repeated in triplicate. After incubation for two hours at room temperature, the plate was washed 3× with 150 μL of TBS+ buffer. To each well, 50 μL of biotinylated anti-α5 antibody (R&D Systems, BAF1864) at 0.5 ug/mL in TBS+/0.1% BSA were added and the plate covered and incubated for 1 hr at room temperature. After washing the plate 3× with 150 μL of TBS+ buffer, 50 μL of streptavidin-conjugated horseradish peroxidase (R&D Systems, DY998) diluted in TBS+ blocking buffer were added to the wells and the plate incubated for 20 min at room temperature. The plate was washed 3× with TBS+ buffer followed by 50 μL of room temperature TMB substrate (Sigma, T444) added to each well and the plate incubated for 20 min at room temperature. The reaction was optionally stopped with 25 μL of Stop Solution (Sigma S5689). Plates were read by colorimetric detection at 650 nm wavelength using a Tecan Safire II plate reader.

[2] = molecular target: T2, Recombinant human integrin αvβ3 (Homo sapiens, UniProt P05106+P06756); assay: Solid Phase Receptor Assay for αvβ3 Function; conditions: binding to vitronectin-coated plate; read-out: αvβ3 SPRA IC50
T2 construct: purchased R&D Systems 3050-AV
T2 sequence (P06756 31-992 limits assumed): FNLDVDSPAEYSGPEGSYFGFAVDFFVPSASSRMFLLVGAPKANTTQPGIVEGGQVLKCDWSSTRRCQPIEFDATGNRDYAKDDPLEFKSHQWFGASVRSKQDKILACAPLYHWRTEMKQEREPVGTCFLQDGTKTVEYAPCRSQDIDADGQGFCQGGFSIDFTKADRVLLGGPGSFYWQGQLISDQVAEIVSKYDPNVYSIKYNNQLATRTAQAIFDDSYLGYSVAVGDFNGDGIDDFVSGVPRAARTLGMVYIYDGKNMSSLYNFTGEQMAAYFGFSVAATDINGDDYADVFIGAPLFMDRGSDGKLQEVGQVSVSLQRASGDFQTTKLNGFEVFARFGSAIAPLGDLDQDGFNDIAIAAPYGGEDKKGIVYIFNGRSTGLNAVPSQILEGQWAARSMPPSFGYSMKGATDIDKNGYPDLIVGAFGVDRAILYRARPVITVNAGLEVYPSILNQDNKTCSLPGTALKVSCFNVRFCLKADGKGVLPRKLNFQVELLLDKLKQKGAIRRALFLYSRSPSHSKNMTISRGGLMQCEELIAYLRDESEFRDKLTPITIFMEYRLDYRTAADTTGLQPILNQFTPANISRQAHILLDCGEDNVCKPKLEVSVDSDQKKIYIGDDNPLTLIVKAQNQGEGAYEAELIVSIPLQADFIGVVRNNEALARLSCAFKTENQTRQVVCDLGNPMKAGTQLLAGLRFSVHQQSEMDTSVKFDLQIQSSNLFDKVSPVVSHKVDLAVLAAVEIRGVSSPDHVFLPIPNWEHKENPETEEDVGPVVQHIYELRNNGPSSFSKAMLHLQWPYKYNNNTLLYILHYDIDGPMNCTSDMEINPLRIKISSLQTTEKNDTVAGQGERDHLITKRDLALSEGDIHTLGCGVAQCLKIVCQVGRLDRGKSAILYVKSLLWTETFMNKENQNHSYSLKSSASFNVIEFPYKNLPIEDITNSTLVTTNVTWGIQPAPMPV
T2 sequence (P05106 27-718 limits assumed): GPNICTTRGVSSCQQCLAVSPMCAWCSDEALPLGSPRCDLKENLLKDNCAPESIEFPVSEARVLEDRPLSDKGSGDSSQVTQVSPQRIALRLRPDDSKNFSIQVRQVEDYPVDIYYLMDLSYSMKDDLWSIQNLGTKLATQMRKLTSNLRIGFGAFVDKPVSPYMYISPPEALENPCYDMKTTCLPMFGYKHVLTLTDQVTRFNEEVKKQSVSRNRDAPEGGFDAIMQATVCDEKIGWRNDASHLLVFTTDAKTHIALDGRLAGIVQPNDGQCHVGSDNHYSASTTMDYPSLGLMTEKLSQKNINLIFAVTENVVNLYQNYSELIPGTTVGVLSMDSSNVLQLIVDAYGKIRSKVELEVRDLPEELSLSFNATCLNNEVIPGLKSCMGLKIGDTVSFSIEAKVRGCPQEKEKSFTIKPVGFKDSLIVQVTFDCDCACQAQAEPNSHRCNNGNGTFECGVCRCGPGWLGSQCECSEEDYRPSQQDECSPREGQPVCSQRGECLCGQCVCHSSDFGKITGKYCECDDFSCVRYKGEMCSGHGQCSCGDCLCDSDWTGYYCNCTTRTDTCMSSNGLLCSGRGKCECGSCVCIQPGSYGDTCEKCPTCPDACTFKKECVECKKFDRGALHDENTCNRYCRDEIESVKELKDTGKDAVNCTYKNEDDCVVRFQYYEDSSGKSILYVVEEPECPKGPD
Protocol: Solid Phase Receptor Assay for αvβ3 Function.
(§1) Wells were washed 3 times with 150 μL TBS+ and 150 μL of blocking buffer (TBS+ with 1% bovine serum albumin, Sigma A7906) were added. The plate was incubated for 1 hr at 37° C. and then washed 3× with TBS+ buffer. […] Compounds were diluted 1:100 into the integrin solution and then 50 μL added to empty wells of the washed vitronectin-coated plate according to a standard template with each sample repeated in triplicate. After incubation for two hours at room temperature, the plate was washed 3× with 150 μL of TBS+ buffer. To each well, 50 μL of biotinylated anti-αv antibody (R&D Systems, BAF1219) at 0.5 μg/mL in TBS+/0.1% BSA were added and the plate covered and incubated for 1 hr at room temperature. After washing the plate 3× with 150 μL of TBS+ buffer, 50 μL of streptavidin-conjugated horseradish peroxidase (R&D Systems, DY998) diluted in TBS+ blocking buffer were added to the wells and the plate incubated for 20 min at room temperature. The plate was washed 3× with TBS+ buffer followed by 50 μL of TMB substrate (Sigma, T4444) added to each well and the plate was incubated for 20 min at room temperature. The reaction was optionally stopped with 25 μL of Stop Solution (Sigma, S5689). Plates were read by colorimetric detection at 650 nm wavelength using a Tecan S afire II plate reader.

[3] = molecular target: T3, Recombinant human integrin αvβ5 (Homo sapiens, UniProt P06756+P18084); assay: Solid Phase Receptor Assay for αvβ5 Function; conditions: binding to vitronectin-coated plate; read-out: αvβ5 SPRA IC50
T3 construct: purchased R&D Systems 2528-AV
T3 sequence (P06756 31-992 limits assumed): as the sequence (P06756 31-992 limits assumed) above
T3 sequence (P18084 24-719 limits assumed): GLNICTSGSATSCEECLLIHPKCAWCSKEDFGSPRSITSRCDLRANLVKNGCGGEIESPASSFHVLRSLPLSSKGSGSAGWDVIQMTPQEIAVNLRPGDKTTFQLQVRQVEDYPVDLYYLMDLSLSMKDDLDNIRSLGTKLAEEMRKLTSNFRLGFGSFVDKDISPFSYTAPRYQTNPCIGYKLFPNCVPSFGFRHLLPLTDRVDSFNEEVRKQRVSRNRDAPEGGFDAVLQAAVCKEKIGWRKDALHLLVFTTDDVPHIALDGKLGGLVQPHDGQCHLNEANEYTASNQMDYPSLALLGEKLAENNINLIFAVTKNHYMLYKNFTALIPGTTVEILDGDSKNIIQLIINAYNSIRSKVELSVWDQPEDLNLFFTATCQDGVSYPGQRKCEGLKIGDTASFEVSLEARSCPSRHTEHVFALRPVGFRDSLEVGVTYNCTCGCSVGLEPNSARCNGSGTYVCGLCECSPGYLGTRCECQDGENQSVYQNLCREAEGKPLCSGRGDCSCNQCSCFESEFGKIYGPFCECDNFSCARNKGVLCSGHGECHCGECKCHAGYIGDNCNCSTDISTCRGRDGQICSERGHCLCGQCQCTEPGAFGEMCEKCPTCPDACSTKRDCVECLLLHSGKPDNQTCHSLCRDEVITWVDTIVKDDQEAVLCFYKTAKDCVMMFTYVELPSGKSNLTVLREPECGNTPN
Protocol: Solid Phase Receptor Assay for αvβ5 Function.
as §1, with “TBS+/0.1% BSA at 0.5 μg/mL were added” for “TBS+/0.1% BSA were added”, “peroxidase (R&D Systems DY998) diluted” for “peroxidase (R&D Systems, DY998) diluted”, “TMB substrate (Sigma T4444) added” for “TMB substrate (Sigma, T4444) added”, “the plate incubated for” for “the plate was incubated for”, “Stop Solution (Sigma S5689). Plates” for “Stop Solution (Sigma, S5689). Plates”, “a Tecan Safire II plate” for “a Tecan S afire II plate”

[4] = molecular target: T4, Recombinant human integrin αvβ6 (Homo sapiens, UniProt P06756+P18564); assay: Solid Phase Receptor Assay for αvβ6 Function; conditions: binding to LAP-coated plate; read-out: αvβ6 SPRA IC50
T4 construct: purchased R&D Systems 3817-AV
T4 sequence (P06756 31-992 limits assumed): as the sequence (P06756 31-992 limits assumed) above
T4 sequence (P18564 22-707 limits assumed): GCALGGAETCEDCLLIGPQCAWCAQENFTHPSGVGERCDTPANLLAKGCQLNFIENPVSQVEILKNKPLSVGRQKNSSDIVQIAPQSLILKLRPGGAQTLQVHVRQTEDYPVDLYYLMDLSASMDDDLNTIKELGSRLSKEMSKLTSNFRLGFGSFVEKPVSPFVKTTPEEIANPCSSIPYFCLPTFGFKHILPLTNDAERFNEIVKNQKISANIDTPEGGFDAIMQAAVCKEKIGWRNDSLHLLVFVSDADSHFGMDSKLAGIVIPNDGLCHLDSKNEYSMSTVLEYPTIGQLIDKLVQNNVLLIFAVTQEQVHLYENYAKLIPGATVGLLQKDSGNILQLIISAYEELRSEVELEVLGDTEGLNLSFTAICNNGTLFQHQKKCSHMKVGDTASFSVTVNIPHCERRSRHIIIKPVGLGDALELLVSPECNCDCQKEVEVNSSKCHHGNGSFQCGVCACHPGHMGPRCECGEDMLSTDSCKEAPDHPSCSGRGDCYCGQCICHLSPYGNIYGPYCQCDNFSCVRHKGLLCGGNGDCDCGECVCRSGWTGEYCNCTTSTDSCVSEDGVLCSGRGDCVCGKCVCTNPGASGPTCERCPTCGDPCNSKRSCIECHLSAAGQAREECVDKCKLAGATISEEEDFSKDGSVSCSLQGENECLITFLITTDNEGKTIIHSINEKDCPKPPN
Protocol: Solid Phase Receptor Assay for αvβ6 Function.
Wells were washed 3 times with 150 μL TBS+, and 150 μL of blocking buffer (TBS+ with 1% bovine serum albumin, Sigma A7906) were added. The plate was incubated for 1 hr at 37° C., and then washed 3× with TBS+ buffer. […] Compounds were diluted 1:100 into the integrin solution and then 50 μL added to empty wells of the washed LAP-coated plate according to a standard template with each sample repeated in triplicate. After incubation for two hours at room temperature, the plate was washed 3× with 150 μL of TBS+ buffer. To each well, 50 μL of biotinylated anti-αv antibody (R&D Systems, BAF1219) at 0.5 μg/mL in TBS+/0.1% BSA were added and the plate was covered and incubated for 1 hr at room temperature. After washing the plate 3× with 150 μL of TBS+ buffer, 50 μL of streptavidin-conjugated horseradish peroxidase (R&D Systems, DY998) diluted in TBS+ blocking buffer were added to the wells and the plate incubated for 20 min at room temperature. The plate was washed 3× with TBS+ buffer followed by 50 μL of TMB substrate (Sigma T4444) added to each well and the plate incubated for 20 min at room temperature. The reaction was optionally stopped with 25 μL of Stop Solution (Sigma S5689). Plates were read by colorimetric detection at 650 nm wavelength using a Tecan Safire II plate reader.

T1 sequence (P08648 42-995 limits assumed): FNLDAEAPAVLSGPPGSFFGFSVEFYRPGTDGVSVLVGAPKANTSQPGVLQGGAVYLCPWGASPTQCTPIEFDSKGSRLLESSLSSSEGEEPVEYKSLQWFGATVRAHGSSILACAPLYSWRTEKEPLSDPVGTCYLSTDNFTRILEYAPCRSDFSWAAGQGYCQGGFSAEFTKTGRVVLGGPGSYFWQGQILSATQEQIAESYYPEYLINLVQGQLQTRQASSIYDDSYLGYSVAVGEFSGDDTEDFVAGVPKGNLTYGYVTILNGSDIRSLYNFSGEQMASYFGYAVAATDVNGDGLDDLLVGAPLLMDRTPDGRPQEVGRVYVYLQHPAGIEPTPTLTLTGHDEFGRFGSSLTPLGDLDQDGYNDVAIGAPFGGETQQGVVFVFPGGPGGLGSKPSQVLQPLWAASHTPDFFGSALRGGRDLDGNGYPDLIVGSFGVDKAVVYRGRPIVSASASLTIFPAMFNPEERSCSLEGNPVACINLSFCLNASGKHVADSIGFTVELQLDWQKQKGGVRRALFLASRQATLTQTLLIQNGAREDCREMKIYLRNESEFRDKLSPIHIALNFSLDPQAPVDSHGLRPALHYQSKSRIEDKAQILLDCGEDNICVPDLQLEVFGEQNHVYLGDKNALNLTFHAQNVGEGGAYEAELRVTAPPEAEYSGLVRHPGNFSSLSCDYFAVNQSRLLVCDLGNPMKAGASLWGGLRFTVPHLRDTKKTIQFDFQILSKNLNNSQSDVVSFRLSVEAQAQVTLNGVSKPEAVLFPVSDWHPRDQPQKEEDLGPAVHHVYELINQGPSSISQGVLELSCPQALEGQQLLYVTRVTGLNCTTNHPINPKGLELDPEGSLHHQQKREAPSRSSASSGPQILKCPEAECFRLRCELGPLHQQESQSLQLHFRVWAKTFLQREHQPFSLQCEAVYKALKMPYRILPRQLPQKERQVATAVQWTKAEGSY
T1 sequence (P05556 21-728 limits assumed): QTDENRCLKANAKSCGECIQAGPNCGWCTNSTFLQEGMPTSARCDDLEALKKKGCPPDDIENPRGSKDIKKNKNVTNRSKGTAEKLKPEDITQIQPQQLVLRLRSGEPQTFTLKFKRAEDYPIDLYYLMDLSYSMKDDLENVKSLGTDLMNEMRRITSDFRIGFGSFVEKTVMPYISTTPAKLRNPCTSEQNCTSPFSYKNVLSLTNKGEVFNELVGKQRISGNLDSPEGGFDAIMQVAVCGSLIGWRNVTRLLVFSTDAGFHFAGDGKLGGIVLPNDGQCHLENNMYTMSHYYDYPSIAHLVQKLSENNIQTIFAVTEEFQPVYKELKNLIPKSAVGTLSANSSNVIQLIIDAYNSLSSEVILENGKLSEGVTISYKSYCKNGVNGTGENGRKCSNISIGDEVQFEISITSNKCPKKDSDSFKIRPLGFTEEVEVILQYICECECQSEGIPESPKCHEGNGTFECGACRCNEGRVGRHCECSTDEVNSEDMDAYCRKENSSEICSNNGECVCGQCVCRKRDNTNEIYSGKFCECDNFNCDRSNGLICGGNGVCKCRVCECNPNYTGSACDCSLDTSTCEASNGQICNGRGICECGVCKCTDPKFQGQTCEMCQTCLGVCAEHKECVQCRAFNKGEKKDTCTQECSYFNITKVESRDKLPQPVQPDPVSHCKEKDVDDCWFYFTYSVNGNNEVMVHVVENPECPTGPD

COCC(C)(C)c1cc(Cl)cc([C@H](CC(=O)O)NC(=O)CNC(=O)c2cc(O)cc(NC3=NCC(O)CN3)c2)c1 (stereo partly drawn) [Example 14, (3S)-3-(3-chloro-5-(1-methoxy-2-methylpropan-2-yl)phenyl)-3-(2-(3-hydroxy-5-((5-hydroxy-1,4,5,6-tetrahydropyrimidin-2-yl)amino)benzamido)acetamido)propanoic acid]
pIC50 [1]: 9.70 | pIC50 [2]: 8.77 | pIC50 [3]: 9.52 | pIC50 [4]: 9.40

CC(C)(C)c1cc(-c2cncnc2)cc([C@H](CC(=O)O)NC(=O)CNC(=O)c2cc(O)cc(NC3=NCC(O)CN3)c2)c1 (stereo partly drawn) [Example 19, (3S)-3-(3-(tert-butyl)-5-(pyrimidin-5-yl)phenyl)-3-(2-(3-hydroxy-5-((5-hydroxy-1,4,5,6-tetrahydropyrimidin-2-yl)amino)benzamido)acetamido)propanoic acid]
pIC50 [1]: 9.40 | pIC50 [2]: 8.06 | pIC50 [3]: 7.68 | pIC50 [4]: 9.15

CC(C)(C)c1cc(-c2cccnc2)cc([C@H](CC(=O)O)NC(=O)CNC(=O)c2cc(O)cc(NC3=NCC(O)CN3)c2)c1 (stereo partly drawn) [Example 18, (3S)-3-(3-(tert-butyl)-5-(pyridin-3-yl)phenyl)-3-(2-(3-hydroxy-5-((5-hydroxy-1,4,5,6-tetrahydropyrimidin-2-yl)amino)benzamido)acetamido)propanoic acid]
pIC50 [1]: 9.40 | pIC50 [2]: 7.84 | pIC50 [3]: 7.68 | pIC50 [4]: 9.22

CC(C)(C)c1cc(Br)cc([C@H](CC(=O)O)NC(=O)CNC(=O)c2cc(O)cc(NC3=NCCN3)c2)c1 [Example 9, (S)-3-(3-bromo-5-(tert-butyl)phenyl)-3-(2-(3-((4,5-dihydro-1H-imidazol-2-yl)amino)-5-hydroxybenzamido)acetamido)propanoic acid]
pIC50 [1]: 9.30 | pIC50 [2]: 8.54 | pIC50 [3]: 8.92 | pIC50 [4]: 9.30

COCC1(c2cc(Cl)cc([C@H](CC(=O)O)NC(=O)CNC(=O)c3cc(O)cc(NC4=NCC(O)CN4)c3)c2)CCOCC1 (stereo partly drawn) [Example 16, (3S)-3-(3-chloro-5-(4-(Methoxymethyl)tetrahydro-2H-pyran-4-yl)phenyl)-3-(2-(3-hydroxy-5-((5-hydroxy-1,4,5,6-tetrahydropyrimidin-2-yl)amino)benzamido)acetamido)propanoic acid]
pIC50 [1]: 9.30 | pIC50 [2]: 8.77 | pIC50 [3]: 9.22 | pIC50 [4]: 9.30

CC(C)(C#N)c1cc(Br)cc([C@H](CC(=O)O)NC(=O)CNC(=O)c2cc(O)cc(NC3=NCC(O)CN3)c2)c1 (stereo partly drawn) [Example 11, (3S)-3-(3-bromo-5-(2-cyanopropan-2-yl)phenyl)-3-(2-(3-hydroxy-5-((5-hydroxy-1,4,5,6-tetrahydropyrimidin-2-yl)amino)benzamido)acetamido)propanoic acid]
pIC50 [1]: 9.52 | pIC50 [2]: 8.47 | pIC50 [3]: 9.15 | pIC50 [4]: 9.30

CC(C)(C)c1cc(Br)cc([C@H](CC(=O)O)NC(=O)CNC(=O)c2cccc(NC(=N)N)c2)c1 [Example 5, (S)-3-(3-bromo-5-(tert-butyl)phenyl)-3-(2-(3-guanidinobenzamido)acetamido) propanoic acid]
pIC50 [1]: 9.22 | pIC50 [2]: 8.59 | pIC50 [3]: 8.80 | pIC50 [4]: 9.22
